The target in one experiment is HDAC1 (Homo sapiens, UniProt Q13547). The experiment in a line: HDAC1 inhibition IC50. The class given is biochemical.
For another experiment, the target named is HDAC2 (Homo sapiens, UniProt Q92769). Put plainly: HDAC2 inhibition IC50. It is filed as biochemical.
The target in another experiment is HDAC3 (Homo sapiens, UniProt O15379). Put plainly: HDAC3 inhibition IC50. It is filed as biochemical.
A further experiment concerns Langendorff hearts. Put plainly: Oxyblotting of lysates from Langendorff hearts subjected to I/R. Also on record: species or system rat. As to conditions: I/R hearts +/- drug. As for the experimental part: (§1) FCCP was injected at point A and […] injected at point B. (B) Measurements of OCR in isolated myocytes subjected to normoxia (blue) or chemical hypoxia. reoxygenation (red) and reperfused with DMSO (red), MS-275 (pink), or LL-66 (peach). For (A) and (B), top panels are representative, bottom panels are the uncoupled rate as a percentage of baseline rate over 4 runs. (C) Oxyblotting of tissue homogenates from Langendorff hearts subjected to I/R+/−LL-66 or MS-275. Representative seahorse data are represented mean +/−SEM, Bar graphs are represented mean +/−S.D. For all experiments, N-4, one way ANOVA with Dunnet post test *p<0.05, **p<0.01.
Since acetylation is known to regulate the activity of mitochondrial enzymes involved in multiple metabolic pathways, the inventors decided to determine if class I HDAC inhibition affects metabolic activity in cardiac myocytes both at baseline and when subjected to simulated hypoxia-reoxygenation (sI/R). […] At the conclusion of the reperfusion period, myocytes were loaded into a Seahorse extracellular flux analyzer and the oxygen consumption rate (OCR) was analyzed at baseline and in response to FCCP (injection A) and […] (injection B).

The test system of experiment [1] is hearts from Sprague-Dawley rats. The experiment in a line: Langendorff isolated heart ischemia-reperfusion model, drug at reperfusion (ex vivo). As to conditions: drug during reperfusion; for left ventricular function (dP/dtmax, dP/dtmin, developed pressure, rate pressure product): 30 min ischemia, 60 min reperfusion, vs drug-free control; for infarct area / viable myocardium (TTC staining): end of 60 min reperfusion. As for the experimental part: (B) Graphs represent measurements of left ventricular function after 30 minutes of ischemia and 60 minutes of reperfusion. dP/dtmax indicates the rate of pressure development, dP/dtmin indicates the rate of pressure relaxation, Developed Pressure was calculated as the difference between the systolic and diastolic pressures, Rate Pressure Product was calculated as the developed pressure multiplied by the heart rate. Measurements were taken at the end of reperfusion. (C) TTC staining for infarct area at the end of reperfusion; yellow/white region indicates area of infarction. Infarct areas were measured using imageJ software. All data are represented as mean+/−S.D. N=4, t-test *p,0.05.
FIG. 3 provides data showing (A) Confocal fluorescent images of myocytes loaded with LL-66 and Mitotracker Deep Red FM. (B) LV functional measurements taken at the end of 30 minutes ischemia and 60 minutes of reperfusion, represented as a percentage of baseline pre-ischemia function. dP/dtmax indicates the rate of pressure development, dP/dtmin indicates the rate of pressure relaxation, Developed Pressure was calculated as the difference between the systolic and diastolic pressures, Rate Pressure Product was calculated as the developed pressure multiplied by the heart rate. Measurements were taken at the end of reperfusion. (C) TTC staining for infarct at the end of reperfusion; yellow/white region indicates area of infarction. Infarct areas were measured using image) software. (D) Area of Infarction for each of the groups in (C). N=3 for (A), For B-D, All data are represented as mean+/−S.D. N=4 t-test for panel B, one way ANOVA with bonferroni post-test for panel D *p<0.05.
To test whether selective class I HDAC inhibition can postcondition the heart against […], the inventors isolated hearts from Sprague-Dawley rats and perfused them using a constant pressure Langendorff apparatus. After 15 minutes of equilibration, the inventors subjected the hearts to 30 minutes of ischemia, followed by 60 minutes of reperfusion. The selective class I HDAC inhibitor MS-275 was administered throughout the reperfusion phase and compared to drug-free control hearts (FIG. 1A). In order to measure left ventricular functional performance, a saline-filled balloon was inserted into the left ventricle and attached to a pressure transducer. […] At the conclusion of the 60 minute reperfusion period, hearts were removed from the perfusion column and sliced into 2 mm transverse sections using a tissue slicing matrix. Hearts were then incubated in 2,3,5-triphenyltetrazolium chloride ([…]) in order to determine the amount of infarcted myocardium. […]

The subject of another experiment is SDHA. The experiment in a line: Mass spectrometry of protein acetyl-lysine in I/R hearts treated at reperfusion. As to conditions: for change in SDHA acetylation: I/R hearts, treated at reperfusion, preliminary MS data; for acetylation of SDHA K480: IR with drug treatment. Also on record: species or system rat. As for the experimental part:
(§2) N=3 per group. (B) Treatment of Langendorff hearts with HDAC inhibitors reduce succinate dehydrogenase activity. SDH activity was measured in tissue lysates from reperfused hearts treated with either MS275 or LL-66 at reperfusion. N=4 per group. (C) SDHA activity was measured in mitochondria isolated from HEK2.93 cells expressing WT, K480Q or K480R mutants. N=4
Samples from I/R hearts treated with LL-66, LL-224, MS-275 and vehicle at reperfusion were prepared for mass spectrometry to detect changes in protein acetyl-lysine. […] The inventors previously proposed to first focus on the lysine corresponding to mouse SDHA K538. […] SDH is unique in that it is the only enzyme that participates both in the Krebs cycle and oxidative phosphorylation in mitochondria. Thirteen acetyl-lysine's have been identified on SDHA but there is no acetylation of SDHB^11*, and SDHA is hyper-acetylated in the Sirt3 knockout mouse. […] HEK293 lowers SDH basal activity^13*, SDH K179 is a target of Sirt3.
(§3) Therefore, since inhibition of the mitochondrial HDAC1 represses SDH activity and. K538 is hyperacetylated in IR when HDAC1 is inhibited, the inventors first proposed to test whether K538 acetylation represses SDH activity. The inventors have made and expressed the mouse WT, K538Q and K538R point mutants of SDHA in HEK293 cells to determine if acetylation of K538 also represses SDH activity. Contrary to what the inventors had hoped the K538Q and K538R SDHA mutants had no difference in SDHA activity from WT SDHA after normalization for expression (data not shown). […] The K480R has WT activity and K.480Q has suppressed SDHA activity (FIG. 5C) when expressed in HEK293 cells.

For a further experiment, the system named is succinate dehydrogenase. Put plainly: SDH activity in tissue lysates from reperfused Langendorff hearts. Also on record: species or system rat. As to conditions: Langendorff hearts treated at reperfusion. As for the experimental part: as §2, §3
The test system of experiment [2] is isolated adult rat cardiac myocytes. Put plainly: Seahorse oxygen consumption rate (OCR) in myocytes, normoxia or simulated hypoxia-reoxygenation. The class given is cell-based. As for the experimental part: as §1
Since acetylation is known to regulate the activity of mitochondrial enzymes involved in multiple metabolic pathways, the inventors decided to determine if class I HDAC inhibition affects metabolic activity in cardiac myocytes both at baseline and when subjected to simulated hypoxia-reoxygenation (sI/R). For these experiments, isolated adult rat cardiac myocytes were subjected to chemical hypoxia or normoxia control for 90 minutes, then reperfused in the presence of DMSO vehicle, MS-275, or LL-66 for 60 minutes. At the conclusion of the reperfusion period, myocytes were loaded into a Seahorse extracellular flux analyzer and the oxygen consumption rate (OCR) was analyzed at baseline and in response to FCCP (injection A) and […] (injection B).

Where [3] appears, read: at baseline (normoxia), FCCP-uncoupled.
[4] abbreviates: following sI/R (90 min chemical hypoxia, 60 min reperfusion with drug).

Here are results for nine molecules from US10703737B2, “HDAC inhibitors and uses thereof” (MUSC FOUNDATION FOR RESEARCH DEVELOPMENT, priority 2018, dated 2020).

Sequence of HDAC1 (Q13547 whole entry, species assumed): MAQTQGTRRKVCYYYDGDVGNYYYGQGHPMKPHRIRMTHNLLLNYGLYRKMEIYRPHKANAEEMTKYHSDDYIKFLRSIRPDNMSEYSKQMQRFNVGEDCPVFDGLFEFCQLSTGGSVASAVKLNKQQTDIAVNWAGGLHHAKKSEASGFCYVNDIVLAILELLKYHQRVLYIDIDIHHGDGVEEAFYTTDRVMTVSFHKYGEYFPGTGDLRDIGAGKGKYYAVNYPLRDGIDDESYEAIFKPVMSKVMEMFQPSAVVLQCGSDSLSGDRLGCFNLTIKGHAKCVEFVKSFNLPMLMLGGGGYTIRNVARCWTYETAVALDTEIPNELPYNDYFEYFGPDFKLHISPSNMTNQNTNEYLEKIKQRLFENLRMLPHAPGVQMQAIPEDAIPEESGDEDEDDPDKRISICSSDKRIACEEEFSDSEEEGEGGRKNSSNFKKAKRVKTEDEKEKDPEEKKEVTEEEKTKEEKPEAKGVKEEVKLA
Sequence of HDAC3 (O15379 whole entry, species assumed, the tested form may be a part): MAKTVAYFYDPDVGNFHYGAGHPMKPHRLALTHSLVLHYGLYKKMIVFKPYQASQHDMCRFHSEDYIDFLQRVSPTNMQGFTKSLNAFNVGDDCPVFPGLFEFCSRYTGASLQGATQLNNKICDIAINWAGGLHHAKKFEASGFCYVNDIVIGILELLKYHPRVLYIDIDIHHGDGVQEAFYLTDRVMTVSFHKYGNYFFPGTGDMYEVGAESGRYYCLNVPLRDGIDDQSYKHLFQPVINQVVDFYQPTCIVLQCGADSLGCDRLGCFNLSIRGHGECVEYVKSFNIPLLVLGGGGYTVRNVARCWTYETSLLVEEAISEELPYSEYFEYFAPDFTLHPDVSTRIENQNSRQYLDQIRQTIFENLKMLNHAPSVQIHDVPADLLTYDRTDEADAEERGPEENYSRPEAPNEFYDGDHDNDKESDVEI
Sequence of HDAC3 (Q9Y618 395-489 partner limits assumed, species assumed): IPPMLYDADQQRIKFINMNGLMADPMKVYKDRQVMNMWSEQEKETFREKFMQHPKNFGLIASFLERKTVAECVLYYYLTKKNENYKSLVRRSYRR
Sequence of HDAC2 (Q92769 whole entry, species assumed): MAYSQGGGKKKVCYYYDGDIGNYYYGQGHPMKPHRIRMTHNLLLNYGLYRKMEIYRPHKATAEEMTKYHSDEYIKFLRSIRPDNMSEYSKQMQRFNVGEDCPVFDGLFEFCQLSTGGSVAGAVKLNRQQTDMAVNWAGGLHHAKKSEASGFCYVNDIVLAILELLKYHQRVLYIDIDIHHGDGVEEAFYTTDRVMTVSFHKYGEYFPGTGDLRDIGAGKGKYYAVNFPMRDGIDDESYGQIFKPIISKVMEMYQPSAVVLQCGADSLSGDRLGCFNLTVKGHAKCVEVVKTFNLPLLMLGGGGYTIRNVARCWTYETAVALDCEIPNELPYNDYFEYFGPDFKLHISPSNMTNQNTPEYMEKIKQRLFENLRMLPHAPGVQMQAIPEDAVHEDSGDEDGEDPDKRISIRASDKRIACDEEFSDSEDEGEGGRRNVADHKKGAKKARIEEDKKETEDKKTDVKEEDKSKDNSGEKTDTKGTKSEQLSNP

Regarding `N=c1ccc2c(-c3ccccc3C(=O)NCCCCCC(=O)Nc3ccccc3N)c3ccc(N)cc3oc-2c1` [LL38, 2-(6-(2-(6-amino-3-iminio-3H-xanthen-9-yl)benzamido)hexanamido) benzenaminium 2,2,2-trifluoroacetate], the IC50 is 1260 nM against HDAC1, 490 nM against HDAC2 and 180 nM against HDAC3.
For `N=c1ccc2c(-c3ccccc3C(=O)NCCCCCCC(=O)Nc3ccccc3N)c3ccc(N)cc3oc-2c1` [LL45, 2-(7-(2-(6-amino-3iminio-3H-xanthen-9-yl)benzamido)heptanamido) benzenaminium 2,2,2-trifluoroacetate], in that order: 1950 nM, 2460 nM and 55 nM.
The corresponding values for `CCCNNC(=O)c1ccc(CNC(=O)c2ccccc2-c2c3ccc(=N)cc-3oc3cc(N)ccc23)cc1` [LL65, 6-amino-9-(2-((4-(2-propylhydrazine-1-carbonyl)benzyl)carbamoyl)phenyl)-3H-xanthen-3-iminium 2,2,2-trifluoroacetate] are 276 nM, 849 nM and 36 nM.
With `N=c1ccc2c(-c3ccccc3C(=O)NCc3ccc(C(=O)Nc4ccccc4N)cc3)c3ccc(N)cc3oc-2c1` [LL66, 2-(4-((2-(6-amino-3-iminio-3H-xanthen-9-yl)benzamido)methyl)benzamido) benzenaminium 2,2,2-trifluoroacetate], the “oxidative damage (oxyblotting)” value in the experiment on Langendorff hearts was “reduction of oxidative damage”. In addition, the figures for the IC50 on HDAC1, at HDAC2 and against HDAC3 were 4020 nM, 3480 nM and 355 nM, respectively. Moreover, in experiment [1], the “left ventricular function (dP/dtmax, dP/dtmin, developed pressure, rate pressure product)” value is reported as “same magnitude of LV functional recovery from injury as the non-targeted class I HDAC inhibitor MS-275”. Further, the “infarct area / viable myocardium (TTC staining)” value in experiment [1] is “rescued viable myocardium to the same extent as MS-275”. Further, in the experiment with SDHA, the “change in SDHA acetylation” value is on record as “significant changes in acetylation”. For the same molecule, the “acetylation of SDHA K480” value in the experiment with SDHA is given as “significantly hyperacetylated”. Moreover, the “acetylation of lysine corresponding to mouse SDHA K538” value in the experiment with SDHA (IR with drug vs IR with vehicle) was “significantly hyperacetylated”. In addition, the SDH activity entry with succinate dehydrogenase is given as “significantly reduced”. The “maximal uncoupled OCR” value in experiment [2] (setting [3]) and in experiment [2] (setting [4]) was “significantly decreased” throughout.
For the molecule `CCCNNC(=O)c1ccc(CNC(=O)CNC(=O)c2ccccc2-c2c3ccc(=N)cc-3oc3cc(N)ccc23)cc1` [LL115, 6-amino-9-(2-((2-oxo-2-((4-(2-propylhydrazine-1-carbonyl)benzyl)amino)ethyl)carbamoyl)phenyl)-3H-xanthen-3-iminium 2,2,2-trifluoroacetate], the IC50 on HDAC1 was 41 nM; against HDAC2, 209 nM; against HDAC3 it was 5 nM.
For `N=c1ccc2c(-c3ccccc3C(=O)NCCCCCCCC(=O)Nc3ccccc3N)c3ccc(N)cc3oc-2c1` [LL130, 2-(8-(2-(6-amino-3-iminio-3H-xanthen-9-yl)benzamido)octanamido) benzenaminium 2,2,2-trifluoroacetate], in that order: 4730 nM, 5170 nM and 152 nM.
For `CCCNNC(=O)CCCCCCNC(=O)c1ccccc1-c1c2ccc(=N)cc-2oc2cc(N)ccc12` [LL142, 6-amino-9-(2-((7-oxo-7-(2-propylhydrazinyl)heptyl)carbamoyl)phenyl)-3H-xanthen-3-iminium 2,2,2-trifluoroacetate], the IC50 against HDAC1 was 111 nM; at HDAC2, 460 nM; on HDAC3, 6 nM.
As to `CCCNNC(=O)c1ccc(NC(=O)CNC(=O)c2ccccc2-c2c3ccc(=N)cc-3oc3cc(N)ccc23)cc1` [LL162, 6-amino-9-(2-((2-oxo-2-((4-(2-propylhydrazine-1-carbonyl)phenyl)amino)ethyl)carbamoyl)phenyl)-3H-xanthen-3-iminium 2,2,2-trifluoroacetate], the IC50 against HDAC1 was determined as 124 nM; at HDAC2, 468 nM; at HDAC3, 7 nM.
For the molecule `Nc1ccccc1NC(=O)c1ccc(CNC(=O)OCc2cccnc2)cc1` [MS-275, reference compound], the “oxidative damage (oxyblotting)” value in the experiment on Langendorff hearts is given as “reduction of oxidative damage”. For the same molecule, in experiment [1], the “left ventricular function (dP/dtmax, dP/dtmin, developed pressure, rate pressure product)” value was “significant preservation of multiple parameters of ventricular function” and the “infarct area / viable myocardium (TTC staining)” value is “significantly reduced infarct area”. For the same molecule, in the experiment on SDHA, the “change in SDHA acetylation” value is listed as “significant changes in acetylation” and the “acetylation of SDHA K480” value was “significantly hyperacetylated”. Also, the “change in acetylation of rat SDHA lysine corresponding to mouse K179” value with SDHA (IR vs IR+drug) is “not significant”. Besides, the SDH activity result in the experiment on succinate dehydrogenase is reported as “significantly reduced”. Moreover, the “maximal uncoupled OCR” value in experiment [2] (setting [3]) was “significantly decreased”. The “maximal uncoupled OCR” value in experiment [2] (setting [4]) is given as “significantly decreased”.
